The source of these data is ChEMBL document CHEMBL3988442, “University of Dundee, Small-Polar-MMV Screening Library” (2021).

Test [1] is described as follows: microbe, parasite or virus in culture. The settings on record: Mycobacterium tuberculosis, 96 h, read-out: pIC50 (converted).
Test [2] is described as follows: microbe, parasite or virus in culture. Particulars: Mycobacterium tuberculosis, 72 h, read-out: pIC50 (converted).

A value given as a limit tells only on which side of the number the result lay.

Turning to `NC[C@]12C[C@H]1CCN2Cc1ccccc1`, the IC50 in test [1] was 184 µM; in test [2] it was above 501 µM.

For the molecule `CN(C)c1cc(C(=O)Nc2ccccc2F)ccn1`, the IC50 was 321 µM in test [1] and 237 µM in test [2].

For `NC(=O)CC1CCN(C(=O)Cc2ccc(Cl)cc2)CC1`, the IC50 in test [1] and in test [2] was above 501 µM each time.

For `CCc1ccc(S(=O)(=O)N(C)CC(N)=O)s1`, the IC50 in test [1] is above 501 µM; in test [2], 244 µM.

As to `CC(CNC(=O)N[C@@H](C)C(=O)N(C)C)Cc1cccs1` (some centres not stated), the results for the IC50 in test [1] and in test [2] were 277 µM and 247 µM, respectively.

With `CC(C)c1ccc(NC(=O)C2COCCN2C)cc1` (configuration not stated), the IC50 in test [1] was above 501 µM; in test [2], 151 µM.

For `COc1ccc(N2CCCN(CCC(N)=O)CC2)cc1`, the figures for the IC50 in test [1] and in test [2] were 240 µM and 345 µM, respectively.

As for `COc1ccc2c(c1)OCC(CNC(=O)CN(C)C)C2` (configuration not stated), the IC50 in test [1] and in test [2] was above 501 µM throughout.

For the molecule `CCOc1cccc(Cn2cnc(CC)cc2=O)n1`, the IC50 in test [1] and in test [2] was above 501 µM each time.

For `COc1ccnc(NCc2ccc(CO)c(F)c2)n1`, the IC50 in test [1] and in test [2] was above 501 µM throughout.

Take `CSc1ccc(C(CN)N(C)C)cc1` (configuration not stated): the IC50 is 319 µM in test [1] and 215 µM in test [2].

In the case of `CN(CCOc1ccc(Cl)cc1)S(C)(=O)=O`, the IC50 is 178 µM in test [1] and 142 µM in test [2].

Regarding `COc1ccccc1OC(C)CN` (configuration not stated), the values for the IC50 in test [1] and in test [2] were 61.1 µM and 20.2 µM, respectively.

In the case of `CC[C@@H](CO)NC(=O)NCC(C)c1ccsc1` (some centres not stated), the results for the IC50 in test [1] and in test [2] were 495 µM and 483 µM, respectively.

In the case of `FC(F)Oc1cccc(N2CCNCC2)c1`, the IC50 was 347 µM in test [1] and 147 µM in test [2].

On to `CC(=O)c1cccc(OCC(=O)NC2CCCC2)c1`, for which the IC50 was 182 µM in test [1] and 290 µM in test [2].

In the case of `Cc1cc(C(C)NC(=O)CN2CSCC2=O)c(C)s1` (configuration not stated), the IC50 in test [1] was above 501 µM; in test [2], 274 µM.

For `CCN(C)S(=O)(=O)N(CC)CC(O)c1ccc(C)cc1` (configuration not stated), the values for the IC50 in test [1] and in test [2] were 293 µM and 334 µM, respectively.

Consider `CCOc1ccc2c(c1)C=C(C(=O)NC)CO2`, for which the values for the IC50 in test [1] and in test [2] were 230 µM and 174 µM, respectively.

As for `CN(C)c1cc(CNC(=O)c2ccc(Br)o2)ccn1`, the IC50 in test [1] and in test [2] was above 501 µM throughout.

As for `COc1ccc(C)cc1CN1CCN(S(N)(=O)=O)CC1`, the IC50 in test [1] is 184 µM; in test [2] it was 65.2 µM.

Consider `CCNc1ncc(C(=O)N(C)Cc2ccsc2)cn1`, for which the IC50 in test [1] and in test [2] was above 501 µM each time.

For the molecule `CSCCC(=O)NCc1ccc(C)s1`, the IC50 in test [1] and in test [2] was above 501 µM in each case.

`O=C1N(Cc2ccccc2)CCN1S(=O)(=O)Cl`: the IC50 in test [1] was 248 µM; in test [2], 259 µM.

Take `CC(C)CNc1nc(N)c2cn[nH]c2n1`: the IC50 in test [1] was 234 µM; in test [2], 80 µM.

Regarding `Cc1cccc(CN(CC(N)=O)Cc2ccccn2)c1`, the IC50 was above 501 µM in test [1] and 194 µM in test [2].

Take `CC(C)(C)OC(=O)N1CC2(CCC(CN)O2)C1` (configuration not stated): the IC50 in test [1] is 263 µM; in test [2] it was 231 µM.

As to `CCNC(=O)NCCOC(=O)c1cccc2cc[nH]c12`, the IC50 in test [1] and in test [2] was above 501 µM in each case.

With `CN(C)S(=O)(=O)N1CCCC1c1ccsc1` (configuration not stated), the IC50 was above 501 µM in test [1] and 277 µM in test [2].

With `CCc1ccccc1CN1C(=O)CCC1=O`, the IC50 in test [1] and in test [2] was above 501 µM in each case.

On to `O=C(Nc1ccc(Cl)cn1)c1ccncc1`, for which the values for the IC50 in test [1] and in test [2] were above 501 µM and 304 µM, respectively.

For `CC(C)n1cc(Br)cc1C(=O)NC1=NCCS1`, the IC50 is above 501 µM in test [1] and 177 µM in test [2].

In the case of `CCOC(=O)C(C)Nc1ccc2c(c1)CCCC(=O)N2` (configuration not stated), the IC50 in test [1] and in test [2] was above 501 µM each time.

Take `CC(C)Oc1ccc(S(=O)(=O)N(C)C(C)CN)cc1` (configuration not stated): the IC50 was 273 µM in test [1] and 162 µM in test [2].

Turning to `Cc1ccc(-c2nc(CSc3nnc(N)[nH]3)no2)cc1`, the IC50 was 80.2 µM in test [1] and 107 µM in test [2].

`NCCCC(=O)N(Cc1ccccc1F)C1CCC1`: the values for the IC50 in test [1] and in test [2] were above 501 µM and 231 µM, respectively.

For the molecule `COCCC(C)Nc1c[nH]nc1-c1ccccn1` (configuration not stated), the IC50 in test [1] was above 501 µM; in test [2], 201 µM.

Consider `NC(=O)COc1cc(Cl)cc(Cl)c1`, for which the IC50 in test [1] was 278 µM; in test [2], 246 µM.

As for `CC(Nc1ccc(C#N)cn1)c1ccc2c(c1)OCO2` (configuration not stated), the results for the IC50 in test [1] and in test [2] were 234 µM and 215 µM, respectively.

For `Nc1cc(=O)[nH]n1-c1ccc(C(F)(F)F)cn1`, the IC50 in test [1] is 308 µM; in test [2], 197 µM.

Consider `Cc1cccc(NC(=O)NCc2c(C)noc2C)n1`, for which the IC50 was above 501 µM in test [1] and 238 µM in test [2].

As to `COc1ccc(CCCC(=O)N2CCC(CN)C2)cc1` (configuration not stated), the values for the IC50 in test [1] and in test [2] were above 501 µM and 230 µM, respectively.

Turning to `Cn1nnnc1SCCOc1cccc(F)c1`, the IC50 in test [1] is 87.9 µM; in test [2], 412 µM.

With `CN(C)S(=O)(=O)N1CCCC1COc1ccccc1` (configuration not stated), the IC50 in test [1] is 271 µM; in test [2], 360 µM.

For the molecule `NC(=O)CCSCc1ccn(-c2ccccc2)n1`, the IC50 in test [1] was 229 µM; in test [2] it was above 501 µM.

With `O=c1n(Cc2ccccc2)nnn1-c1cccs1`, the results for the IC50 in test [1] and in test [2] were 12.7 µM and 7.64 µM, respectively.

Take `Cc1c[nH]c(C(=O)NC2COc3ccccc3C2)n1` (configuration not stated): the IC50 in test [1] and in test [2] was above 501 µM in each case.

`CC(=O)c1cccc(COC(=O)c2cccnc2)c1`: the figures for the IC50 in test [1] and in test [2] were 269 µM and 231 µM, respectively.

On to `Cc1cc(C(=O)NCC(O)c2ccccc2Cl)no1` (configuration not stated), for which the IC50 is above 501 µM in test [1] and 177 µM in test [2].

Take `Cn1cc(C(N)=O)c(NC(=O)c2ccc(Br)cc2)n1`: the IC50 in test [1] is above 501 µM; in test [2], 257 µM.

With `CC(C)N(C)S(=O)(=O)NC1CCOc2ccccc21` (configuration not stated), the results for the IC50 in test [1] and in test [2] were above 501 µM and 340 µM, respectively.

Consider `Cc1cc(S(=O)(=O)N2CCCC2CN)sc1C` (configuration not stated), for which the IC50 in test [1] was above 501 µM; in test [2], 141 µM.

For `N#Cc1ccc(NCCOc2ccccc2)nc1`, the figures for the IC50 in test [1] and in test [2] were 48.4 µM and 95.3 µM, respectively.

`O=C(NCc1cccc(Cl)c1)c1cnns1`: the IC50 in test [1] is 159 µM; in test [2], 297 µM.

As for `CC(CN1CCOCC1)NC(=O)c1csc(Br)c1` (configuration not stated), the IC50 was 205 µM in test [1] and 102 µM in test [2].

Take `O=C(CSc1ncccc1Br)N1CCCC1`: the IC50 is 70.3 µM in test [1] and 5.62 µM in test [2].

Consider `C=C(C)CCOC(=O)c1cc(C(N)=O)cs1`, for which the IC50 is 157 µM in test [1] and 39.4 µM in test [2].

Regarding `COc1ccc(CCNc2ccc3nnnn3n2)cc1`, the IC50 in test [1] and in test [2] was above 501 µM in each case.

Turning to `COc1ccc(NC(=O)N2CCCN(C)CC2)cc1F`, the IC50 in test [1] and in test [2] was above 501 µM each time.

Regarding `C=C(C)COCCNC(=O)c1c(O)cccc1F`, the IC50 in test [1] and in test [2] was above 501 µM throughout.

Consider `CN(C1(C#N)CCC1)S(=O)(=O)c1cccs1`, for which the IC50 in test [1] is above 501 µM; in test [2], 323 µM.
